For test [1], the system named is adriamycin resistant cell line (ADR-res). Description: NCI panel, adriamycin resistant cell line, SRB assay. Format: cell-based. As to conditions: Homo sapiens, 48 h. The procedure, abridged: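 Cells in RPMI-1640/10% FCS plated at 5,000–40,000 cells/well, preincubated 24 h at 37° C, 5% CO2, then exposed 48 h to compound at 5 doses spanning 4 logs. Viability by sulforhodamine B total-protein staining after cold TCA fixation; absorbance read at 515 nm.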
(In general: Sulforhodamine B stains cellular protein and so reports cell mass.)

The next test has as its target T1, Blk (Homo sapiens, UniProt P51451).
T1 construct: purchased Upstate 14-517
Description: Blk kinase assay. Format: biochemical. As to the method:
• 1. 10× Reaction buffer: […], 1 mM sodium orthovanadate, 1% 2-mercaptoethanol. • 2. Enzyme Dilution Buffer (EDB): 50 mM Tris-HCl pH 7.5, 0.1 mM EGTA, 0.1 mM sodium orthovanadate, 0.1% 2-mercaptoethanol 0.03% Brij-35. • 3. Blk (human), active: Dilute to 4-40 ng/μl with EDB. Use 2.5 μl per assay point. • 4. Poly(Glu-4-Tyr) (4:1): Prepare a 1 mg/ml stock. Use 2.5 μl per assay point for a final assay concentration of 0.1 mg/ml per assay point. • 5. [γ-^32P]ATP: Stock 1 mCi/100 μl (3000 Ci/mmol, obtained from PerkinElmer, Cat. # BLU002A). Make 10 μl aliquots (100 μCi/vial). Before starting the assay, dilute an aliquot to 1 μCi/μl with 90 μl of 75 mM MgCl2 and 500 μM cold ATP in 20 mM MOPS, pH 7.2, 25 mM β-glycerol phosphate, 5 mM EGTA, 1 mM sodium orthovanadate, 1 mM dithiothreitol.
• 1. Add 2.5 μl of 10× Reaction Buffer per assay. • 2. Add 2.5 μl (0.1 mg/ml) of Poly (Glu-4-Tyr) (4:1). • 3. Add 2.5 μl (10-100 ng) of Blk (human), active. • 4. Add 7.5 μl sterile, distilled water. • 5. Add 10 μl of the diluted [γ-^32P]ATP solution. • 6. Incubate for 10 minutes at 30° C. • 7. Transfer a 20 μl aliquot onto the center of a […]. • 8. Wash the assay squares three times for 5 minutes with 0.75% phosphoric acid. • 9. Wash the assay squares once for 5 minutes with acetone. • 10. Transfer the assay squares to vial and add 1 ml scintillation cocktail. • 11. Read in scintillation counter. Compare cpm of enzyme samples to cpm of control samples that contain background control.

Where [2] appears, read: read-out: BLK Inhibition (IC50).

Experimental findings from patent US20080146555A1, “Uses of Kinase Inhibitors and Compositions Thereof” (GPC Biotech, Inc, priority 2004, published 2008) are described below.

Each structure is given as a SMILES string. Counter-ions that a name gives are not always drawn. Like-named read-outs stand apart in the source and are kept apart here. Bounds are passed on as bounds.

T1 sequence (P51451 whole entry): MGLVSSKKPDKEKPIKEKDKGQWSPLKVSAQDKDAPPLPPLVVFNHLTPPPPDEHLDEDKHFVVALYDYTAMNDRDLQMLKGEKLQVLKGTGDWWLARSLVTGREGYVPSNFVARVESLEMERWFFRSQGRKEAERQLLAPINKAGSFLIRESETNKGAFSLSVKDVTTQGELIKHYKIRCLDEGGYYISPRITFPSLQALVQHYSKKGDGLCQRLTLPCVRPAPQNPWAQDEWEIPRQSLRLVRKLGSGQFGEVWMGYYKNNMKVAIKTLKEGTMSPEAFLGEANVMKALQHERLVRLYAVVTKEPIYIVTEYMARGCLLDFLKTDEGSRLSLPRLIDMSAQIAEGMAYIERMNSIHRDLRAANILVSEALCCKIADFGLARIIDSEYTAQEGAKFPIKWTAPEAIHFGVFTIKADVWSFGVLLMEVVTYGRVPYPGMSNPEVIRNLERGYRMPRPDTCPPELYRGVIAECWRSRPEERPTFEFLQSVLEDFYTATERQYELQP

Usually IC50 stands for the concentration that inhibits the measured activity by half. With `CC(C)N1CCN(C(=O)COc2ccc(-c3n[nH]c4c3C(=O)c3c(NC(=O)NN5CCOCC5)cccc3-4)cc2)CC1` [Compound A37], the results for the IC50 (in test [1]; on Blk (setting [2])) were less than 100000 nM and less than 100 nM, respectively.

As for `COCCN1CCN(Cc2ccc(-c3n[nH]c4c3C(=O)c3c(NC(=O)NN5CCOCC5)cccc3-4)cc2)CC1` [Compound B16, N-[3-(4-{[4-(2-methoxyethyl)piperazinyl]methyl}phenyl)-4-oxoindeno[2,3-d]pyrazol-5-yl](morpholin-4-ylamino)carboxamide dihydrochloride], the IC50 in test [1] was less than 10000 nM; on Blk (kinase panel, read-out: Blk IC50), less than 100 nM; on Blk (setting [2]), less than 100 nM.
